Reference: patent publication US20040071783A1, “Methods and apparatus for particle formation” (priority 1998, published 2004)

Legend:
[1] = Particle size analysis using the Aerosizer/Aerodisperser system; format: physicochemical; conditions: particle size distribution
Experimental: Particle size analysis of the product was carried out using the Aerosizer/Aerodisperser system (API, USA).

Crystallinity by XRPD = format: physicochemical; conditions: XRPD pattern
[2] = SEM, in comparison

SMILES | SIZE, 5% UNDER [1] [micron] | SIZE, 10% UNDER [1] [micron] | SIZE, 15% UNDER [1] [micron] | SIZE, 20% UNDER [1] [micron] | SIZE, 25% UNDER [1] [micron] | SIZE, 30% UNDER [1] [micron] | SIZE, 35% UNDER [1] [micron] | SIZE, 40% UNDER [1] [micron] | SIZE, 45% UNDER [1] [micron] | SIZE, 50% UNDER [1] [micron] | SIZE, 55% UNDER [1] [micron] | SIZE, 60% UNDER [1] [micron] | SIZE, 65% UNDER [1] [micron] | SIZE, 70% UNDER [1] [micron] | SIZE, 75% UNDER [1] [micron] | SIZE, 80% UNDER [1] [micron] | SIZE, 85% UNDER [1] [micron] | SIZE, 90% UNDER [1] [micron] | SIZE, 95% UNDER [1] [micron] | crystallinity (Crystallinity by XRPD) | further results
CC(C)Cc1ccc(C(C)C(=O)O)cc1 (centres unmarked) [Example 1a, ibuprofen] | 9.241 | 11.68 | 13.57 | 15.21 | 16.74 | 18.21 | 19.62 | 20.99 | 22.30 | 23.58 | 24.87 | 26.16 | 27.48 | 28.83 | 30.25 | 31.76 | 33.44 | 35.44 | 38.65 |  | 
CC(C)Cc1ccc(C(C)C(=O)O)cc1 (centres unmarked) [Example 1b, ibuprofen] | 5.920 | 7.411 | 8.631 | 9.720 | 10.75 | 11.72 | 12.66 | 13.56 | 14.43 | 15.30 | 16.18 | 17.07 | 17.99 | 18.94 | 19.95 | 21.05 | 22.25 | 23.67 | 25.84 |  | 
CC(C)Cc1ccc(C(C)C(=O)O)cc1 (centres unmarked) [Example 1c, ibuprofen] | 3.762 | 4.462 | 5.018 | 5.518 | 5.999 | 6.479 | 6.966 | 7.471 | 8.004 | 8.572 | 9.186 | 9.849 | 10.55 | 11.28 | 12.06 | 12.92 | 13.88 | 14.96 | 16.35 |  | 
CC(C)Cc1ccc(C(C)C(=O)O)cc1 (centres unmarked) [Example 2, ibuprofen] | 5.815 | 7.327 | 8.537 | 9.612 | 10.62 | 11.57 | 12.49 | 13.38 | 14.26 | 15.17 | 16.10 | 17.06 | 18.06 | 19.10 | 20.20 | 21.41 | 22.79 | 24.42 | 26.78 |  | 
O=C(O)c1cccnc1 [Example 5b, nicotinic acid] |  |  |  |  |  |  |  |  |  |  |  |  |  |  |  |  |  |  |  |  | particle size and morphology [2]: comparable particle size and morphology to that of the product of Example 5a

More lines, main results first:

SIZE, 5% UNDER [1] [micron] | SIZE, 10% UNDER [1] [micron] | SIZE, 15% UNDER [1] [micron] | SIZE, 20% UNDER [1] [micron] | SIZE, 25% UNDER [1] [micron] | SIZE, 30% UNDER [1] [micron] | SIZE, 35% UNDER [1] [micron] | SIZE, 40% UNDER [1] [micron] | SIZE, 45% UNDER [1] [micron] | SIZE, 50% UNDER [1] [micron] | SIZE, 55% UNDER [1] [micron] | SIZE, 60% UNDER [1] [micron] | SIZE, 65% UNDER [1] [micron] | SIZE, 70% UNDER [1] [micron] | SIZE, 75% UNDER [1] [micron] | SIZE, 80% UNDER [1] [micron] | SIZE, 85% UNDER [1] [micron] | SIZE, 90% UNDER [1] [micron] | SIZE, 95% UNDER [1] [micron] | crystallinity (Crystallinity by XRPD) | SMILES | further results
 |  |  |  |  |  |  |  |  |  |  |  |  |  |  |  |  |  |  | crystalline | O=C(O)c1ccccc1O [Example 3a, salicylic acid] | 
 |  |  |  |  |  |  |  |  |  |  |  |  |  |  |  |  |  |  | crystalline in form | O=C(O)c1ccccc1O [Example 3b, salicylic acid] | 
 |  |  |  |  |  |  |  |  |  |  |  |  |  |  |  |  |  |  | confirmed its crystallinity | CC(C(=O)O)c1cccc(C(=O)c2ccccc2)c1 (centres unmarked) [Example 4, ketoprofen] | 
